Patent publication US20130040933A1, “AZAINDOLES AS JANUS KINASE INHIBITORS” (priority 2010, published 2013)

biological target: T1, rhJAK3 (Homo sapiens, UniProt P52333); test: JAK Biochemical HTRF Assay (JAK3); details: recombinant purified GST-tagged catalytic domain, HTRF format, [ATP] 1.7 μM; read-out: JAK3 IC50
T1 construct: recombinant purified GST-tagged catalytic domain for each enzyme; purchased Invitrogen PV3855
T1 sequence (P52333 822-1111 limits assumed): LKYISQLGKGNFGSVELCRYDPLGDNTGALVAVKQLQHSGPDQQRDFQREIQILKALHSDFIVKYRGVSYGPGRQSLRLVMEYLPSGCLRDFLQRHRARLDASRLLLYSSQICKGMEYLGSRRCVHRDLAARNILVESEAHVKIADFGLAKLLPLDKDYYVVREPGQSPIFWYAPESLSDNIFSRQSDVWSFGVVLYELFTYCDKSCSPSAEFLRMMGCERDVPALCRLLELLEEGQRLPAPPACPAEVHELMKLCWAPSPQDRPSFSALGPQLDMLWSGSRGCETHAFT

Molecule | IC50 [nM]
C[C@@H](Nc1cncc(-c2c[nH]c3ncc(-c4ccc(N5CCCC5)cc4)cc23)n1)C(=O)NCC(F)(F)F [Example 15-17, N^2-{6-[5-(4-pyrrolidin-1-ylphenyl)-1H-pyrrolo[2,3-b]pyridin-3-yl]pyrazin-2-yl}-N-(2,2,2-trifluoroethyl)-D-alaninamide] | ≤ 1
COc1cncc(-c2cnc3[nH]cc(-c4cncc(N[C@H](C)C(=O)NCC(F)(F)F)n4)c3c2)c1 [Example 15-18, N^2-{6-[5-(5-methoxypyridin-3-yl)-1H-pyrrolo[2,3-b]pyridin-3-yl]pyrazin-2-yl}-N-(2,2,2-trifluoroethyl)-D-alaninamide] | ≤ 1
C[C@@H](Nc1cncc(-c2c[nH]c3ncc(-c4cccnc4F)cc23)n1)C(=O)NCC(F)(F)F [Example 15-20, N^2-{6-[5-(2-fluoropyridin-3-yl)-1H-pyrrolo[2,3-b]pyridin-3-yl)pyrazin-2-yl}-N-(2,2,2-trifluoroethyl)-D-alaninamide] | ≤ 1
CC(C)(Nc1cncc(-c2c[nH]c3ncc(C4CC4)cc23)n1)C(=O)NCC(F)(F)F [Example 15-21, N2-[6-(5-cyclopropyl-1H-pyrrolo[2,3-b]pyridin-3-yl)pyrazin-2-yl]-2-methyl-N-(2,2,2-trifluoroethyl)alaninamide] | ≤ 1
CC(C)(Nc1cncc(-c2c[nH]c3ncc(F)cc23)n1)C(=O)NCC(F)(F)F [Example 16-5, N^2-[6-(5-fluoro-1H-pyrrolo[2,3-b]pyridin-3-yl)pyrazin-2-yl]-2-methyl-N-(2,2,2-trifluoroethyl)alaninamide] | ≤ 1

Continued, values first:

IC50 [nM] | Molecule
≤ 1 | C[C@@H](Nc1cncc(-c2c[nH]c3ncc(-c4cncc(C#N)c4)cc23)n1)C(=O)NCC(F)(F)F [Example 15-19, N^2-{6-[5-(5-cyanopyridin-3-yl)-1H-pyrrolo[2,3-b]pyridin-3-yl]pyrazin-2-yl}-N-(2,2,2-trifluoroethyl)-D-alaninamide]
1 to 10 | CC(C)[C@@H](Nc1cncc(-c2c[nH]c3ncc(F)cc23)n1)C(=O)NCC(F)(F)F [Example 16-1, N^2-[6-(5-fluoro-1H-pyrrolo[2,3-b]pyridin-3-yl)pyrazin-2-yl]-N-(2,2,2-trifluoroethyl)-D-valinamide]
≤ 1 | CC(C)[C@@H](Nc1cncc(-c2c[nH]c3ncc(C#N)cc23)n1)C(=O)NCC(F)(F)F [Example 16-2, N^2-[6-(5-cyano-1H-pyrrolo[2,3-b]pyridin-3-yl)pyrazin-2-yl]-N-(2,2,2-trifluoroethyl)-D-valinamide]
1 to 10 | COC(=O)c1cnc2[nH]cc(-c3cncc(N[C@@H](C(=O)NCC(F)(F)F)C(C)C)n3)c2c1 [Example 16-3, Methyl 3-[6-({(2R)-3-methyl-1-oxo-1-[(2,2,2-trifluoroethyl)amino]butan-2-yl}-amino)pyrazin-2-yl]-1H-pyrrolo[2,3-b]-pyridine-5-carboxylate]

same assay, conditions: recombinant purified GST-tagged catalytic domain, HTRF format, [ATP] 1.7 μM; read-out: rhJAK3 IC50

Molecule | IC50 [nM]
(2R)-1-[6-(5-chloro-1H-pyrrolo[2,3-b]- pyridin-3-yl)pyrazin-2-yl]-N-(2,2,2- trifluoroethyl)piperazine-2-carboxamide [Example 4-1] | 10 to 100
